Measured values reported in US20250115598A1 (Anaxis Pharma Pty Ltd, priority 2021, published 2025).
Read-outs that look alike come from different tables or passages of the source.

Tests used:
human RIPK1 = human RIPK1 (Homo sapiens (Human), UniProt Q13546); assay: KINOMEscan binding assay, human RIPK1; settings: Table 21
Outline: (§1)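 Tagged kinase + immobilized ligand beads + compound; eluted kinase quantified by qPCR. Kinase source: T7 phage lysate (BL21-derived E. coli, 32 °C) or HEK-293 with DNA tag. 11-pt 3-fold series, 1% DMSO, top 30,000 nM (most). Hill fit, slope −1 → Kd.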

[1] = system: U937 human histiocytic leukemia cell line; assay: Cellular assay: inhibition of TSQ induced necroptosis, CellTitre-Glo viability; settings: U937 cells, 48 hours, TSQ cocktail, read-out: Inhibition of TSQ-induced necroptosis (IC50 cell-based assay)
Method: Cellular Assay: Screening Compounds for Inhibition of TSQ Induced Necroptosis, 384 Well Plate Format.
(§2) • Cell Line ID: U937 human histiocytic leukemia cell line. • Cell Concentration (cells/well): Final cell density is 20000 cells per well. • Cell growth medium: HT-RPMI medium+7.4% Fetal Bovine Serum (FBS). Cells are cultured in Corning 150 cm^2 tissue culture flasks with vented caps at 37° C./5% CO2. • Incubation: Plates were incubated at 37° C./5% CO2 in a humidified incubator for 48 hours following addition of compounds and death stimuli (TSQ cocktail). • Compound concentration: 36 μM starting concentration, 1:3 dilution, 10 point • DMSO final concentration (% v/v): 0.3%. Compounds in TSQ Cocktail (T: TNF; S: Smac Mimetic; Q: Q-VD-OPh) and their Final Concentrations: • hTNF-Fc (100 ng/ml)—produced by standard procedures as shown in Bossen et al., J. Biol. Chem., 2006, 281(20), 13964-13971. • Compound A (500 nM)—Smac mimetic, Tetralogic and SYNthesis med chem • Q-VD-OPh (10 μM)—MP Biomedicals
(§3) The cellular assay was carried out according to the following steps: • 1. Each well was prepared by sequential addition of: • a. DMSO (control; columns 1-2 and 23-24) or compound in DMSO—addition was performed using acoustic transfer of nL volumes of stock compound to give final test concentrations of 36, 12, 4, 1.3, 0.44, 0.148, 0.049, 0.016, 0.005 and 0.002 μM. All wells were backfilled with DMSO to a final total volume in the well of 100 nL. • b. Following compound/DMSO addition in step (a), 40 μL of cell suspension (5×10^5 cells/mL) was added to provide a final cell concentration of 20,000 cells per well, and • c. Following cell addition in step (b), 10 μL of 5×TSQ cocktail (except to positive controls; columns 1 and 23) was added to each well. • 2. After 48 hours, plate was removed from the 37° C. incubator and equilibrated to room temperature for 45 minutes. • 3.15 μL of room temperature CellTitre-Glo2™ (Promega™) was added to each well. • 4. Shook plates for 2 minutes (˜600 rpm) and incubated at room temperature for 15 minutes to allow signal to stabilise. • 5. Read luminescence readout on a plate reader.
Percent viability was calculated for each compound according to equation (2):
(§4) • Assay involving the TSQ cocktail (T: TNF; S: Smac mimetic; Q: Q-VD-OPh): TSQ treatment ensures that cells specifically undergo necroptotic cell death. TNF activates the TNF receptor, Smac mimetic directs the signal away from proinflammatory signaling and toward the RIPK1/RIPK3-mediated cell death pathways, and Q-VD-OPh ensures that the apoptotic response is blocked leaving only the programmed necrosis response. The compounds' activity (solution in DMSO) tested in this TSQ-induced assay was evaluated by determining the number of viable cells in culture by measuring the amount of ATP present as measured by CelltiterGlo. • Counter screen: In parallel, all compounds were tested for their ability to affect cell viability. The same U937 cells were treated with compound in DMSO without the TSQ cocktail. This counter screen enabled evaluation of off-target effects. In this case, cell viability was measured by CelltiterGlo.

human RIPK3 = human RIPK3 (Homo sapiens (Human), UniProt Q9Y572); assay: KINOMEscan binding assay, human RIPK3; settings: Table 21
Outline: as §1

U937 cells = assay: Counter screen: cell viability without the TSQ cocktail (off-target effect); parameters: species or system human
Method: as §2, §3, §4

human MLKL (full length) = human MLKL (full length) (Homo sapiens (Human), UniProt Q8NB16); assay: KINOMEscan binding assay, human MLKL (full length)
Outline: as §1

[2] = Homo sapiens, U-937, Table 23, read-out: Off-target effect (IC50 cell-based assay)
[3] = hMLKL, Table 25, read-out: MLKL (KD)
[4] = Homo sapiens, U-937, Table 26, read-out: Off-target effect (IC50 cell-based assay)
[5] = KINOMEscan, Table 21, read-out: Human MLKL (full-length) (KD)
[6] = Table 23, read-out: Off-target effect (IC50 cell-based assay)

Chain of human RIPK1 (Q13546 whole entry): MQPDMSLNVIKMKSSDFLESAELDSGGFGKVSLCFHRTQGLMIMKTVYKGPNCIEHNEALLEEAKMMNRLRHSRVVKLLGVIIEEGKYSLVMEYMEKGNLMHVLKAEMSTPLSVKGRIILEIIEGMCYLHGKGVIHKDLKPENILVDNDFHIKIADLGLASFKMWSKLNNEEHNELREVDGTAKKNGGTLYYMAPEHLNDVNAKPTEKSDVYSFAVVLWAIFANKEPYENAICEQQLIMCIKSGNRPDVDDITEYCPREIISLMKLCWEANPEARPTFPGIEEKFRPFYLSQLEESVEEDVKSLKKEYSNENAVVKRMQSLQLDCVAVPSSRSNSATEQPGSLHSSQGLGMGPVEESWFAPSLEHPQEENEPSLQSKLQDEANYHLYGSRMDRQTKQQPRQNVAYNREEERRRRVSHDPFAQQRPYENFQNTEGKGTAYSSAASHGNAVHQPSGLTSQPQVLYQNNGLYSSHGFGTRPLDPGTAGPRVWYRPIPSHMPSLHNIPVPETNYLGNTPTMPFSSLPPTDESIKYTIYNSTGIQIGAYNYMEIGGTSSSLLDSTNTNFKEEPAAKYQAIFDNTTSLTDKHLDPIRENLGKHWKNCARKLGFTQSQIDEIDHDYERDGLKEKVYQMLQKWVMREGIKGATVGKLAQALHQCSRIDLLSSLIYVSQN
Chain of human RIPK3 (Q9Y572 whole entry): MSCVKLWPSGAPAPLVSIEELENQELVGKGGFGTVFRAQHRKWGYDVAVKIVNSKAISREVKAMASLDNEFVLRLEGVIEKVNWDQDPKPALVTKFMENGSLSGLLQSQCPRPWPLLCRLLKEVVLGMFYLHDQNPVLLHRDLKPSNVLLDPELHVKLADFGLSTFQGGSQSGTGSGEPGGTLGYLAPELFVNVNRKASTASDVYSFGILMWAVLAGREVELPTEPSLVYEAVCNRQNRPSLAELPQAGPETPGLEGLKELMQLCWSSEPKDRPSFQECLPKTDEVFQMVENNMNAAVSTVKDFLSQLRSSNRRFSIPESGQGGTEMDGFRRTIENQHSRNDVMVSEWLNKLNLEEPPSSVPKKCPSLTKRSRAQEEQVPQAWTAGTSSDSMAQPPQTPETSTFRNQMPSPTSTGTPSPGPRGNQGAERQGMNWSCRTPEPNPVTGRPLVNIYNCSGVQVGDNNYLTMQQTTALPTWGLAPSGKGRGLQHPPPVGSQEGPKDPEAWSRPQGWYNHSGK
Chain of human MLKL (full length) (Q8NB16 whole entry): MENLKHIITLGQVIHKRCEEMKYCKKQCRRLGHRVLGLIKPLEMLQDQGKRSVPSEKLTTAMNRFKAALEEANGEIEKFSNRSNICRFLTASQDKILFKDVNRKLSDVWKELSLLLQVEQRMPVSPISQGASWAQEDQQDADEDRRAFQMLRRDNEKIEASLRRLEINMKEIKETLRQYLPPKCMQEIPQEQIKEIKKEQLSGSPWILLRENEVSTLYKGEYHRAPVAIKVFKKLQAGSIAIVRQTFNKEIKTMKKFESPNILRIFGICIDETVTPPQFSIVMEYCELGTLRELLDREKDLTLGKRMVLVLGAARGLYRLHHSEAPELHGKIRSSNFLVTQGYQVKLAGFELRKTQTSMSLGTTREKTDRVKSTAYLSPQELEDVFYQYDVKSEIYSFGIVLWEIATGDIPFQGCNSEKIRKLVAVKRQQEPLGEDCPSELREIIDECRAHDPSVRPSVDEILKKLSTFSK

| SMILES | Kd (human RIPK1) | Kd (human RIPK3) | Kd (human MLKL (full length); [3]) | Kd (human MLKL (full length); [5]) | IC50 ([1]; Homo sapiens, U-937, Table 23) | IC50 (U937 cells; [2]) | IC50 ([1]; Homo sapiens, U-937, Table 26) | IC50 (U937 cells; [4]) | IC50 ([1]; Table 23) | IC50 (U937 cells; [6]) |
| --- | --- | --- | --- | --- | --- | --- | --- | --- | --- | --- |
| C[C@H](Oc1cc(-c2nn(C)c3c(-c4cnn([C@@H]5CCN(C)C(C)(C)C5)c4)cnc(N)c23)ccc1NS(=O)(=O)C(F)F)c1ccc(F)cc1 (single isomer, unassigned) [Compound 154, N-(4-(4-amino-1-methyl-7-(1-((R*)-1,2,2-trimethylpiperidin-4-yl)-1H-pyrazol-4-yl)-1H-pyrazolo[4,3-c]pyridin-3-yl)-2-((S)-1-(4-fluorophenyl)ethoxy)phenyl)-1,1-difluoromethanesulfonamide] | > 10000 nM | > 10000 nM |  |  | < 10 nM | > 10000 nM |  |  |  |  |
| Cc1ncsc1-c1ccc(CNC(=O)[C@@H]2C[C@@H](O)CN2C(=O)[C@@H](NC(=O)COCCN2CCC(n3cc(-c4cnc(N)c5c(-c6ccc(NS(=O)(=O)C(F)F)c(O[C@@H](C)c7ccc(F)cc7)c6)nn(C)c45)cn3)C2)C(C)(C)C)cc1 (stereo partly drawn) [Compound 1013, (2S,4R)-1-[(2S)-2-(2-{2-[3-(4-{4-amino-3-[4-(difluoromethanesulfonamido)-3-[(1S)-1-(4-fluorophenyl)ethoxy]phenyl]-1-methyl-1H-pyrazolo[4,3-c]pyridin-7-yl}-1H-pyrazol-1-yl)pyrrolidin-1-yl]ethoxy}acetamido)-3,3-dimethylbutanoyl]-4-hydroxy-N-{[4-(4-methyl-1,3-thiazol-5-yl)phenyl]methyl}pyrrolidine-2-carboxamide] |  |  | < 10 nM |  |  |  | 1000 to 10000 nM | > 10000 nM |  |  |
| Cc1ncsc1-c1ccc(CNC(=O)[C@@H]2C[C@@H](O)CN2C(=O)[C@H](NC(=O)C2(F)CC2)C(C)(C)C)c(OCCCCCCCn2cc(-c3cnc(N)c4c(-c5ccc(NS(=O)(=O)C(F)F)c(O[C@@H](C)c6ccc(F)cc6)c5)nn(C)c34)cn2)c1 [Compound 1030, (2S,4R)—N-[(2-{[7-(4-{4-amino-3-[4-(difluoromethanesulfonamido)-3-[(1S)-1-(4-fluorophenyl)ethoxy]phenyl]-1-methyl-1H-pyrazolo[4,3-c]pyridin-7-yl}-1H-pyrazol-1-yl)heptyl]oxy}-4-(4-methyl-1,3-thiazol-5-yl)phenyl)methyl]-1-[(2R)-2-[(1-fluorocyclopropyl)formamido]-3,3-dimethylbutanoyl]-4-hydroxypyrrolidine-2-carboxamide] |  |  | 10 to 1000 nM |  |  |  | < 1000 nM | > 10000 nM |  |  |
| CCS(=O)(=O)Nc1ccc(-c2nn(C)c3c(-c4ccncc4)cnc(N)c23)cc1OCc1ccc(F)cc1 [Compound 1, N-(4-(4-amino-1-methyl-7-(pyridin-4-yl)-1H-pyrazolo[4,3-c]pyridin-3-yl)-2-((4-fluorobenzyl)oxy)phe-nyl)ethanesulfonamide] | > 10000 nM | > 10000 nM |  | 1 to 100 nM | 1000 to 10000 nM | > 10000 nM |  |  |  |  |
| CNc1ncc(-n2cc(-c3cnc(N)c4c(-c5ccc(NS(=O)(=O)C(F)F)c(O[C@@H](C)c6ccc(F)cc6)c5)nn(C)c34)cn2)cn1 [Compound 138, (S)-N-(4-(4-amino-1-methyl-7-(1-(2-(methylamino)pyrimidin-5-yl)-1H-pyrazol-4-yl)-1H-pyrazolo[4,3-c]pyridin-3-yl)-2-(1-(4-fluorophenyl)ethoxy)phenyl)-1,1-difluoromethanesulfonamide] | > 10000 nM | > 10000 nM |  | 1 to 100 nM |  |  |  |  | 10 to 1000 nM | > 10000 nM |
| C[C@H](Oc1cc(-c2nn(C)c3c(-c4ccc(N5CCNCC5)nc4)cnc(N)c23)ccc1NS(=O)(=O)C(F)F)c1ccc(F)cc1 [Compound 108] | > 10000 nM | > 10000 nM |  | < 1 nM |  |  |  |  | 10 to 1000 nM | > 10000 nM |

Now from value to compound, other results behind:

| Kd (human RIPK1) | Kd (human RIPK3) | Kd (human MLKL (full length); [3]) | Kd (human MLKL (full length); [5]) | SMILES | IC50 ([1]; Homo sapiens, U-937, Table 23) | IC50 (U937 cells; [2]) | IC50 ([1]; Homo sapiens, U-937, Table 26) | IC50 (U937 cells; [4]) | IC50 ([1]; Table 23) | IC50 (U937 cells; [6]) |
| --- | --- | --- | --- | --- | --- | --- | --- | --- | --- | --- |
|  |  | < 10 nM |  | CCS(=O)(=O)Nc1ccc(-c2n[nH]c3c(-c4cnn(CCCCC(=O)N[C@H](C(=O)N5C[C@H](O)C[C@H]5C(=O)NCc5ccc(-c6scnc6C)cc5)C(C)(C)C)c4)cnc(N)c23)cc1OCc1ccc(F)cc1 [Compound 1002, (2S,4R)-1-[(2S)-2-{5-[4-(4-amino-3-{4-ethanesulfonamido-3-[(4-fluorophenyl)methoxy]phenyl}-1H-pyrazolo[4,3-c]pyridin-7-yl)-1H-pyrazol-1-yl]pentanamido}-3,3-dimethylbutanoyl]-4-hydroxy-N-{[4-(4-methyl-1,3-thiazol-5-yl)phenyl]methyl}pyrrolidine-2-carboxamide] |  |  | > 10000 nM | > 10000 nM |  |  |
|  |  | 10 to 1000 nM |  | CCS(=O)(=O)Nc1ccc(-c2nn(C)c3c(-c4cnn(CCOCCOCC(=O)N[C@H](C(=O)N5C[C@H](O)C[C@H]5C(=O)NCc5ccc(-c6scnc6C)cc5)C(C)(C)C)c4)cnc(N)c23)cc1 [Compound 1019, (2S,4R)-1-[(2S)-2-{2-[2-(2-{4-[4-amino-3-(4-ethanesulfonamidophenyl)-1-methyl-1H-pyrazolo[4,3-c]pyridin-7-yl]-1H-pyrazol-1-yl}ethoxy)ethoxy]acetamido}-3,3-dimethylbutanoyl]-4-hydroxy-N-{[4-(4-methyl-1,3-thiazol-5-yl)phenyl]methyl}pyrrolidine-2-carboxamide] |  |  | 1000 to 10000 nM | > 10000 nM |  |  |
|  |  | 10 to 1000 nM |  | CCS(=O)(=O)Nc1ccc(-c2nn(C)c3c(-c4cnn(CCCCCCC(=O)N[C@H](C(=O)N5C[C@H](O)C[C@H]5C(=O)NCc5ccc(-c6scnc6C)cc5)C(C)(C)C)c4)cnc(N)c23)cc1 [Compound 1020, (2S,4R)-1-[(2S)-2-(7-{4-[4-amino-3-(4-ethanesulfonamidophenyl)-1-methyl-1H-pyrazolo[4,3-c]pyridin-7-yl]-1H-pyrazol-1-yl}heptanamido)-3,3-dimethylbutanoyl]-4-hydroxy-N-{[4-(4-methyl-1,3-thiazol-5-yl)phenyl]methyl}pyrrolidine-2-carboxamide] |  |  | < 1000 nM | > 10000 nM |  |  |
|  |  | < 10 nM |  | Cc1ncsc1-c1ccc(CNC(=O)[C@@H]2C[C@@H](O)CN2C(=O)[C@@H](NC(=O)COCCOCCn2cc(-c3cnc(N)c4c(-c5ccc(NS(=O)(=O)C(F)F)cc5)nn(C)c34)cn2)C(C)(C)C)cc1 [Compound 1021] |  |  | 1000 to 10000 nM | > 10000 nM |  |  |
